The values below come from US11008572B2, “Methods and compositions for modulating splicing” (SKYHAWK THERAPEUTICS, INC., priority 2017, dated 2021).

Where two headings read alike, the source gives them in different places. Bounds are passed on as bounds.

One data set concerns A673 cells. Description: Dose-response cell proliferation, crystal violet assay, 72 h. It counts as cell-based. The following applies: ratio of IC50 in NHDF cells to IC50 in A673 cells. As to the method:
Small molecule splicing modulators were tested in a dose-response assay using A673 cells and NHDF cells.
A673 cells or NHDF cells were first plated in 96-well plastic tissue culture plates (10,000 cells per well). The cells were treated with vehicle alone (DMSO), or increasing concentrations of SMSM compounds for 72 h. Following treatment, cell proliferation was determined using a crystal violet assay. The relative cell proliferation at each concentration was determined.

Data set [1] can be described thus: Maximum tolerable dose study. The following applies: mice, 3 per group. It is filed as in vivo. The method, then:
Survival of mice after administration of SMSMs after 10 or 11 days was assessed.
Tolerance of the drug treatments was determined by measuring the weight of the mice during the period of drug administration. Body weight was measured prior to tumor inoculation and prior to the treatment administration and then daily. The changes in the final weight of the mice for the SMSM treatments were determined.

The test system of data set [2] is FOXM1^A2 mRNA and FOXM1^BC mRNA. Put plainly: Splicing assay (FOXM1), qPCR of isoform mRNAs. It is filed as cell-based. The note with it: for EC50: read-out: Splice EC50 (nM) FoxM1 A mRNA increase (exon excluded). The method in brief: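 RT-qPCR read-out after 24 h compound exposure at 37° C., 0.2% DMSO, top dose 10 μM with 4-fold 8-point dilutions, 20,000 cells per well. Copy numbers from plasmid standard curves, PPIA-normalized, expressed as isoform ratio relative to DMSO.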
A general note: Quantitative PCR measures a nucleic acid by following its amplification.

Data set [3] can be described thus: Splicing (IC50), Example 22. The note with it: spliced gene and cells not stated. It counts as cell-based. The method, then:
A-673 cell viability […], splicing (IC50) and brain AUC/Plasma AUC of SMSMs were determined. As shown in the tables below SMSMs had high CNS exposure.

In another data set the test system is A-673 cells. Put plainly: Cell viability, crystal violet staining. It is filed as cell-based. The note with it: Homo sapiens. Summed up:
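Readout is absorbance at 570 nm of crystal violet, taken up in 0.1 M sodium citrate in 50% ethanol after staining with 0.5% dye in 25% methanol. Plates held 5×10^3 cells per well, and compounds were added one day after seeding for 72 hours. Data are relative to vehicle, mean±SE.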

A further data set deals with SMN2^FL mRNA. Description: SMN2 splicing assay, real-time quantitative PCR, SMA type I patient cells (GM03813). It is filed as cell-based. The note with it: Homo sapiens, 24 hours. The method, then:
(§1) Various cells lines were treated with the SMSMs described herein. RNA was then isolated, cDNA synthesized, qPCR performed and the levels of various mRNA targets of the SMSMs were determined. In some instances, RNA was isolated, cDNA synthesized, qPCR performed and the levels of mRNA isoforms in the various cell samples were determined.
(§2) SMA type I patient cells (GM03813 (Coriell))
(§3) On the day of the experiment, a 96-well plate was seeded with the cell lines of interest. The cells were diluted with full growth media to a concentration of 2.0×10^5 cells/mL and 100 μL of cells were added to each well (20,000 cells per well). The cells were treated with a compound immediately after plating.
(§4) The compounds were then added to the cell plate using the HP compound dispenser. In the initial experiment, a top concentration of 10 μM and an 8 point 4-fold dilution scheme was used. The stock compounds were made at a concentration of 5 mM, and the DMSO concentration was set to 0.2%. DMSO was used to normalize all the compound-containing wells and the untreated cells.
(§5) The treated cells were incubated at 37° C. in a 5% CO2 incubator for the desired amount of time. Plates were placed in a plastic bag with a wet paper towel to prevent evaporation.
(§6) RNA was isolated using the Cells to CT kit (ThermoFisher, AM1728). The cells were washed once with 100 μL cold PBS. 50 μL of lysis buffer was added to each well/tube (49.5 μL lysis buffer+0.5 μL DNase I per well/tube). The lysis reaction was mixed and incubated at room temperature for 5 minutes. 5 μL of stop solution was added directly into each cell lysis reaction and mixed by pipetting up and down 5 times. The plates/tubes were incubated at room temperature for 2 minutes then placed on ice if the cDNA synthesis was to be performed immediately. Otherwise, the plates/tubes were stored at −80° C.
(§7) cDNA synthesis reactions were then performed. 40 μL RT master mix was added to PCR tubes or plate wells. 10 μL of RNA was added to each tube/well. The RT thermal cycler program was then run and tubes or plate wells were incubated at 37° C. for 1 hour, then at 95° C. for 5 minutes to deactivate the enzyme.
(§8) The qPCR was performed using a QuantStudio 6instrument (ThermoFisher) and the following cycling conditions and according to the tables below. All samples and standards were analyzed in triplicate. Cycle 1: 2 minutes at 50° C. Cycle 2: 10 minutes at 95′C. Cycle 3 (repeat 40 times): 15 seconds at 95° C., 1 minute at 60° C.
(§9) The determined SMN2^Δ7 and SMN2^FL quantities were then be used to determine the SMN2^Δ7:SMN2^FL ratio at the various compound concentrations. The PPIA quantities were used in the normalization to account of cell proliferation effects of the compounds.
(§10) An assay to measure the SMN2^FL mRNA and SMN2^Δ7 mRNA simultaneously in cell wells was performed. The RNA values were measured relative to DMSO control and also included a housekeeping gene, PPIA to ensure data was consistent. The mRNA values were measured after 24 hours of incubation with the SMSM compounds.
(§11) Additionally, to monitor expression levels of SMN2 splice variant using real-time quantitative PCR, SMA type I patient cells (GM03813 (Coriell)) were plated at 5,000 cells/well in 200 μl Dulbecco's modified Eagle's medium (DMEM) with GlutaMAX and 10% fetal bovine serum (FBS) (Life Technologies, Inc.) in 96-well plates, and incubated for 6 hours in a cell culture incubator. Cells were then treated with SMSMs at different concentrations (0.5% DMSO) in duplicate for 24 hours. After removal of the supernatant, cells were lysed in Cells-To-Ct lysis buffer (Life Technologies, Inc.) according to the manufacturer's recommendations. The mRNA levels of SMN2 FL, SMN2 A7 were quantified using Taqman-based RT-qPCR and SMN2-specific primers and probes. The SMN2 forward and reverse primers were each used at a final concentration of 0.4 μM. The SMN2 probe was used at a final concentration of 0.1 μM. […]

The subject of the next data set is SMN2^Δ7 mRNA. Described as above. It counts as cell-based. The following applies: Homo sapiens, 24 hours. As to the method: as §1, §2, §3, §4, §5, §6, §7, §8, §9, §10, §11
[4] abbreviates: FoxM1 BC mRNA decrease (exon included), read-out: Splice IC50 (nM) FoxM1 BC mRNA decrease (exon included).
The mark [5] stands for this setting: Homo sapiens, A673, 24 h, A-673 cells, 24 hours, table does not say EC50 or IC50, read-out: FOXM1.
The mark [6] stands for this setting: Homo sapiens, A-375, 24 h, A-375 cells, 24 hours, table does not say EC50 or IC50, read-out: FOXM1.
Setting [7] is: Homo sapiens, Hep3B, 24 h, Hep-3B cells, 24 hours, table does not say EC50 or IC50, read-out: FOXM1.
Where [8] appears, read: Homo sapiens, K562, 24 h, K-562 cells, 24 hours, table does not say EC50 or IC50, read-out: FOXM1.
Where [9] appears, read: Homo sapiens, MDA-MB-468, 24 h, MDA-MB-468 cells, 24 hours, table does not say EC50 or IC50, read-out: FOXM1.
Setting [10] is: Homo sapiens, NCI-H358, 24 h, NCI-H358 cells, 24 hours, table does not say EC50 or IC50, read-out: FOXM1.
The mark [11] stands for this setting: Homo sapiens, PANC-1, 24 h, PANC-1 cells, 24 hours, table does not say EC50 or IC50, read-out: FOXM1.
Where [12] appears, read: Homo sapiens, PC-3, 24 h, PC-3 cells, 24 hours, table does not say EC50 or IC50, read-out: FOXM1.
[13] abbreviates: Homo sapiens, U-87 MG, 24 h, U-87MG cells, 24 hours, table does not say EC50 or IC50, read-out: FOXM1.
The mark [14] stands for this setting: A673, cell viability, read-out: A-673 IC50 (nM) Cell viability.
[15] abbreviates: A673, read-out: A-673 cell viability (IC50).

On to `CC(/C=C/C(=O)NO)=C\[C@@H](C)C(=O)c1ccc(N(C)C)cc1` [Trichostatin A], for which the “Ratio NHDF/A673 IC50” value in the data set on A673 cells is no more than 10.

In general, EC50 refers to the concentration giving half of the maximal effect. Regarding `CN(c1ccc(-c2cc(F)c(-c3cn[nH]c3)cc2O)nn1)[C@H]1C[C@]2(C)CC[C@](C)(C1)N2` [compound 167, 2-(6-(((1R,3s,5S)-1,5-dimethyl-8-azabicyclo[3.2.1]octan-3-yl)(methyl)amino)pyridazin-3-yl)-4-fluoro-5-(1H-pyrazol-4-yl)phenol], the Outcome result in data set [1] (IP 0.1 mg/kg BIDx12), in data set [1] (IP 0.3 mg/kg BIDx12), in data set [1] (IP 1 mg/kg QDx12) and in data set [1] (PO 5 mg/kg QDx12) was “All survived” in each case. Also, the IC50 in data set [2] (setting [4]) was less than 10 nM; in data set [2] (setting [5]) it was less than 1 nM; in data set [2] (setting [6]), less than 1 nM; in data set [2] (setting [7]), 11 to 100 nM; in data set [2] (setting [8]), 1 to 10 nM; in data set [2] (setting [9]), 1 to 10 nM. Further, the IC50 in data set [2] (setting [10]) was less than 1 nM; in data set [2] (setting [11]), 11 to 100 nM; in data set [2] (setting [12]), 11 to 100 nM; in data set [2] (setting [13]) it was 11 to 100 nM; in data set [3] it was less than 1 nM; with A-673 cells (setting [14]) it was less than 10 nM. For the same compound, in the data set on A-673 cells (setting [15]), the IC50 was less than 0.5 nM. Moreover, the EC50 in data set [2] is less than 10 nM. Moreover, in the data set with A673 cells, the “Ratio NHDF/A673 IC50” value is listed as >2,500.

As to `CN(c1ccc(-c2ccc(-c3ccn(C)c(=O)c3)cc2O)nn1)[C@H]1C[C@]2(C)CC[C@](C)(C1)N2` [compound 168, 4-(4-(6-(((1R,3s,5S)-1,5-dimethyl-8-azabicyclo[3.2.1]octan-3-yl)(methyl)amino)pyridazin-3-yl)-3-hydroxyphenyl)-1-methylpyridin-2(1H)-one], the IC50 in data set [2] (setting [4]) was less than 10 nM; in data set [2] (setting [5]) it was 1 to 10 nM; in data set [2] (setting [6]), 1 to 10 nM; in data set [2] (setting [7]) it was 101 to 200 nM; in data set [2] (setting [8]), 11 to 100 nM; in data set [2] (setting [9]), 11 to 100 nM. Moreover, the IC50 in data set [2] (setting [10]) was 1 to 10 nM; in data set [2] (setting [11]) it was 101 to 200 nM; in data set [2] (setting [12]), 11 to 100 nM; in data set [2] (setting [13]), 11 to 100 nM; in data set [3], less than 1 nM; with A-673 cells (setting [14]) it was less than 10 nM. In addition, the IC50 with A-673 cells (setting [15]) was no more than 5 nM. Besides, the EC50 in data set [2] is greater than 1000 nM. The “Ratio NHDF/A673 IC50” value with A673 cells is greater than 500.

`COc1cc(-c2ccc(-c3ccc(N(C)[C@@H]4C[C@H]5CCC[C@@H](C4)N5)nn3)c(O)c2)ccn1` [compound 289, 2-(6-(((1R,3s,5S)-9-azabicyclo[3.3.1]nonan-3-yl)(methyl)amino)pyridazin-3-yl)-5-(2-methoxypyridin-4-yl)phenol] registered an EC50 in the data set with SMN2^FL mRNA of 4 nM. For the same compound, the IC50 is 4 nM in the data set with SMN2^Δ7 mRNA and less than 10 nM with A-673 cells (A673, cell viability, read-out: A-673 IC50 (nM), Cell viability).
